Assays:
[1] = target: T1, 5-HT2A (h), human recombinant (HEK-293 cells) (Homo sapiens, UniProt P28223); assay: Cellular functional assay 5-HT2A (h) agonism; format: cell-based; settings: compound 1×10^−6 M; control 10 μM serotonin
T1 construct: expressed in transfected cells; host or cells: HEK-293 cells
Procedure: The results are expressed as a percent of control specific agonist response ((measured specific response/control specific agonist response)×100) obtained in the presence of tested compound.
The EC50 values (concentration producing a half-maximal specific response) and IC50 values (concentration causing a half-maximal inhibition of the control specific agonist response) were determined by non-linear regression analysis of the concentration-response curves generated with mean replicate values using Hill equation curve fitting (Y=D+[(A−D)/(1+(C/C50)nH)], where Y=specific response, D=minimum specific response, A=maximum specific response, C=compound concentration, and C50=EC50 or IC50, and nH=slope factor).
For the antagonists, the apparent dissociation constants (Kb) were calculated using the modified Cheng Prusoff equation (Kb=IC50/(1+(A/EC50A)), where A=concentration of reference agonist in the assay, and EC50A=EC50 value of the reference agonist).

[2] = target: T2, hERG potassium channels (KCNH2 gene, expressed in CHO cells) (Homo sapiens, UniProt Q12809); assay: Ability to block hERG potassium channel, electrophysiology (IonWorks Quattro); format: cell-based; settings: for hERG [%] (% block of hERG current): compound 1×10^−5 M; for Ki: read-out: Inhibition constants Ki for hERG potassium channels (column head H1 [nM])
T2 construct: expressed in transfected cells; host or cells: CHO cells
T2 sequence (Q12809 whole entry): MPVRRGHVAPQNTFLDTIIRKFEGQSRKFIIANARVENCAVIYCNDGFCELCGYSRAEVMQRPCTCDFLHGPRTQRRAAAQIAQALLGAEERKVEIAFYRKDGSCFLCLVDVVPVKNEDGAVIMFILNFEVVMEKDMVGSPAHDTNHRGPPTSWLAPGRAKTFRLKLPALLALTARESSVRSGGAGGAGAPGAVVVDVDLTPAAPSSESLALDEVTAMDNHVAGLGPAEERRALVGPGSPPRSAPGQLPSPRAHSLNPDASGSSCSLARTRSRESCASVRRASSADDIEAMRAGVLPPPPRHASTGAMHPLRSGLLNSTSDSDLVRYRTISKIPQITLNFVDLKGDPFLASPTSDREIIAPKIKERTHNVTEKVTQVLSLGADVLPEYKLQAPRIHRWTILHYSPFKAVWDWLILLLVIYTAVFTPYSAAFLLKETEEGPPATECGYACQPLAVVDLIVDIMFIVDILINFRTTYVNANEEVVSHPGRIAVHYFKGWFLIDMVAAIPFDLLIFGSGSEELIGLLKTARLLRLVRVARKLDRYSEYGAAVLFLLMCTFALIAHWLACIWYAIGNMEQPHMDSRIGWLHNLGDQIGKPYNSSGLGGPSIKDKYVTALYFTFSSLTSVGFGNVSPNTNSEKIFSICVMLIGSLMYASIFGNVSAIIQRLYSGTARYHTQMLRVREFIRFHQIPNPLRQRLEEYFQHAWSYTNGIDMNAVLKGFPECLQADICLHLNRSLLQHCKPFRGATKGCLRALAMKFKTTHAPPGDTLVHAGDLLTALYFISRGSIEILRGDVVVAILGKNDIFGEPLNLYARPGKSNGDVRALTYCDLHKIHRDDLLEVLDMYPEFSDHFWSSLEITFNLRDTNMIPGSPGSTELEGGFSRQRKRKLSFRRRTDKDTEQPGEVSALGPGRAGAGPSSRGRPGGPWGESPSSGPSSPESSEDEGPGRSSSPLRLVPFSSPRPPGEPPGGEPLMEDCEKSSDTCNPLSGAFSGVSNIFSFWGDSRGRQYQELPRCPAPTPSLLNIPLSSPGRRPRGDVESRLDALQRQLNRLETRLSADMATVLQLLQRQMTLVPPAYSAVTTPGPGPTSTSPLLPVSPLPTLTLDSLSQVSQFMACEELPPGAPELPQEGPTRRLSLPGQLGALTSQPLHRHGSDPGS
Procedure: Ability to block hERG potassium channels was determined using the electrophysiological method and cloned hERG potassium channels (KCNH2 gene, expressed in CHO cells) as biological material. The effects were evaluated using IonWorks™ Quattro system (MDS-AT).
hERG current was elicited using a pulse pattern with fixed amplitudes (conditioning prepulse: −80 mV for 25 ms; test pulse: +40 mV for 80 ms) from a holding potential of 0 mV. hERG current was measured as a difference between the peak current at 1 ms after the test step to +40 mV and the steady-state current at the end of the step to +40 mV.
Data acquisition and analyses were performed using the IonWorks Quattro™ system operation software (version 2.0.2; Molecular Devices Corporation, Union City, Calif.). Data were corrected for leak current.
The hERG block was calculated as: % Block=(1−ITA/IControl)×100%, where IControl and ITA were the currents elicited by the test pulse in control and in the presence of a test compound, respectively.

[3] = system: σ receptors (rat cerebral cortex); assay: Binding assay, σ receptors ([3H]DTG); settings: compound 1×10^−6 M
Procedure: (§1) Moreover, ability of the compounds of the invention to block potassium channel hERG was tested.
(§2) The specific ligand binding to the receptors is defined as the difference between the total binding and the non-specific binding determined in the presence of an excess of unlabelled ligand.
(§3) The inhibition constants (Ki) were calculated using the Cheng Prusoff equation (Ki=IC50/(1+(L/KD)), where L=concentration of radioligand in the assay, and KD=affinity of the radioligand for the receptor). A Scatchard plot is used to determine the Kd. The IC50 values (concentration causing a half-maximal inhibition of control specific binding) and Hill coefficients (nH) were determined by non-linear regression analysis of the competition curves generated with mean replicate values using Hill equation curve fitting (Y=D+[(A−D)/(1+(C/C50)^nH)], where Y=specific binding, D=minimum specific binding, A=maximum specific binding, C=compound concentration, C50=IC50, and nH=slope factor). This analysis was performed using a software developed at Cerep (Hill software) and validated by comparison with data generated by the commercial software SigmaPlot® 4.0 for Windows® (©1997 by SPSS Inc.).
Experimental conditions for tests are given in Table 14, and results of tests for representative compounds are given in Table 15a and 15b.

[4] = system: α1 adrenergic receptors (rat cerebral cortex); assay: Binding assay, α1 adrenergic receptor ([3H]prazosin); settings: for α1 [%] affinity test result: compound 1×10^−6 M; for Ki: read-out: Inhibition constant Ki α1
Procedure: as §2, §3
Experimental conditions for tests are given in Table 7, and results of tests for representative compounds are given in Tables 8a and 8b (α1 receptors) and in Tables 9a and 9b (α2C receptors).

[5] = target: T3, human recombinant D3 receptors (Homo sapiens, UniProt P35462); assay: Binding assay, dopaminergic D3 receptor ([3H]methylspiperone); settings: read-out: Inhibition constant Ki D3
T3 construct: purchased PerkinElmer
T3 sequence (P35462 whole entry): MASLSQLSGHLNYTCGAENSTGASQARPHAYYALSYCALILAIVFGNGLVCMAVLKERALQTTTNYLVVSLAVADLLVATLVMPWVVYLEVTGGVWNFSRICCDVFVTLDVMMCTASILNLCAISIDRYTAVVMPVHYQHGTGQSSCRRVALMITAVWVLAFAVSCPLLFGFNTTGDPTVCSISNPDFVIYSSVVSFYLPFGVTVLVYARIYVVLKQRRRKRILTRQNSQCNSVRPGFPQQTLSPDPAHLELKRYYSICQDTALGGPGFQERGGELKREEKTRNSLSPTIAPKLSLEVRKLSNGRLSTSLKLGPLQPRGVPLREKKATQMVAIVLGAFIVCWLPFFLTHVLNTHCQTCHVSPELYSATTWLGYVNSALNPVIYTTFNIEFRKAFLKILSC
Procedure: as §1, §2
as §3, with “factor).” for “factor). This analysis was performed using a software developed at Cerep (Hill software) and validated by comparison with data generated by the commercial software SigmaPlot® 4.0 for Windows® (©1997 by SPSS Inc.).”

[6] = target: T4, D2 receptor, human recombinant (GeneBLAzer D2-Gqo5 CHO-K1 DA) (Homo sapiens, UniProt P14416); assay: Binding assay, dopaminergic D2 receptor ([3H]methylspiperone); settings: read-out: Inhibition constant Ki D2
T4 construct: purchased Invitrogen; host or cells: CHO-K1 (GeneBLAzer D2-Gqo5 CHO-K1 DA)
T4 sequence (P14416 whole entry): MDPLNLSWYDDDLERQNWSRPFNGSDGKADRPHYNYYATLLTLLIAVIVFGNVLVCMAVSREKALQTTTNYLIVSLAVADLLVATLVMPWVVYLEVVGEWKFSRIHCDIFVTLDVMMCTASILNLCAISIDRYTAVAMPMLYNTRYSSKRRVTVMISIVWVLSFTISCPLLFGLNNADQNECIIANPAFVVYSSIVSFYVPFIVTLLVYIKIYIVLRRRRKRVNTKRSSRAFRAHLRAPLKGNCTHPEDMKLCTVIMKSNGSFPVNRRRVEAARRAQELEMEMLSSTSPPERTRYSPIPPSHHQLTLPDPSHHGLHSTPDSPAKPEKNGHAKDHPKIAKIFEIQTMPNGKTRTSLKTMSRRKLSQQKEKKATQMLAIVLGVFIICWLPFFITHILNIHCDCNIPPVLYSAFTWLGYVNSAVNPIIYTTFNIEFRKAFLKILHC
Procedure: as §1, §2
as §3, with “factor).” for “factor). This analysis was performed using a software developed at Cerep (Hill software) and validated by comparison with data generated by the commercial software SigmaPlot® 4.0 for Windows® (©1997 by SPSS Inc.).”

[7] = target: 5-HT2A receptor, human recombinant (Homo sapiens, UniProt P28223); assay: Binding assay, 5-HT2A receptor ([3H]ketanserin); design: purchased PerkinElmer; settings: read-out: Inhibition constant Ki 5-HT2A
Chain of 5-HT2A receptor, human recombinant (P28223 whole entry): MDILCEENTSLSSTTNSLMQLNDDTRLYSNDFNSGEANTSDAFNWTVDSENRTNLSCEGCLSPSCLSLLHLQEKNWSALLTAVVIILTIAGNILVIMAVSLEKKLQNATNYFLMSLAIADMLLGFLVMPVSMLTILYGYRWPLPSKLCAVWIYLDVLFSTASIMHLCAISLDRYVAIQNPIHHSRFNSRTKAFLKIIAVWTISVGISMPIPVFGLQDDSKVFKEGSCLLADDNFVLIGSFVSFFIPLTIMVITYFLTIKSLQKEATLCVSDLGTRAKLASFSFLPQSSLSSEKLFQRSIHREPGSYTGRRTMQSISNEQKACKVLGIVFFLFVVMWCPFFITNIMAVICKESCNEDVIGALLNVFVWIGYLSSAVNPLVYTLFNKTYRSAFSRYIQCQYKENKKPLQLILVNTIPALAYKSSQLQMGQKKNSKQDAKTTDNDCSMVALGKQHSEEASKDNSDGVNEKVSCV
Procedure: as §1, §2
as §3, with “factor).” for “factor). This analysis was performed using a software developed at Cerep (Hill software) and validated by comparison with data generated by the commercial software SigmaPlot® 4.0 for Windows® (©1997 by SPSS Inc.).”

[8] = target: T5, 5-HT6 receptor, human recombinant (Homo sapiens, UniProt P50406); assay: Binding assay, 5-HT6 receptor ([3H]LSD); settings: read-out: Inhibition constant Ki 5-HT6
T5 construct: purchased PerkinElmer
T5 sequence (P50406 whole entry): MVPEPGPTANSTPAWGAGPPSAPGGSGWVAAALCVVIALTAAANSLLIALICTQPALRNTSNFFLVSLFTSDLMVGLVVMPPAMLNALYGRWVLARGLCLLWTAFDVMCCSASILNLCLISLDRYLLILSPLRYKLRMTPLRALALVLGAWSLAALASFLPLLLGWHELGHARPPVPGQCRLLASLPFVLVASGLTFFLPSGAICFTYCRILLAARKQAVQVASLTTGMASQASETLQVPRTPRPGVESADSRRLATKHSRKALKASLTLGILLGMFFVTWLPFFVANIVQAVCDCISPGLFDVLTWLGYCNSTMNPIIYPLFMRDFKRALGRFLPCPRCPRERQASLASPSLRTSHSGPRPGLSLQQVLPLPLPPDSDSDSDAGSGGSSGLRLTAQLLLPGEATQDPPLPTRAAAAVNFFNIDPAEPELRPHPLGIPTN
Procedure: as §1, §2
as §3, with “factor).” for “factor). This analysis was performed using a software developed at Cerep (Hill software) and validated by comparison with data generated by the commercial software SigmaPlot® 4.0 for Windows® (©1997 by SPSS Inc.).”

[9] = target: T6, M3 muscarinic receptors, human recombinant (CHO cells) (Homo sapiens, UniProt P20309); assay: Binding assay, M3 muscarinic receptor ([3H]4-DAMP); settings: compound 1×10^−6 M
T6 construct: expressed in transfected cells; host or cells: CHO cells
T6 sequence (P20309 whole entry): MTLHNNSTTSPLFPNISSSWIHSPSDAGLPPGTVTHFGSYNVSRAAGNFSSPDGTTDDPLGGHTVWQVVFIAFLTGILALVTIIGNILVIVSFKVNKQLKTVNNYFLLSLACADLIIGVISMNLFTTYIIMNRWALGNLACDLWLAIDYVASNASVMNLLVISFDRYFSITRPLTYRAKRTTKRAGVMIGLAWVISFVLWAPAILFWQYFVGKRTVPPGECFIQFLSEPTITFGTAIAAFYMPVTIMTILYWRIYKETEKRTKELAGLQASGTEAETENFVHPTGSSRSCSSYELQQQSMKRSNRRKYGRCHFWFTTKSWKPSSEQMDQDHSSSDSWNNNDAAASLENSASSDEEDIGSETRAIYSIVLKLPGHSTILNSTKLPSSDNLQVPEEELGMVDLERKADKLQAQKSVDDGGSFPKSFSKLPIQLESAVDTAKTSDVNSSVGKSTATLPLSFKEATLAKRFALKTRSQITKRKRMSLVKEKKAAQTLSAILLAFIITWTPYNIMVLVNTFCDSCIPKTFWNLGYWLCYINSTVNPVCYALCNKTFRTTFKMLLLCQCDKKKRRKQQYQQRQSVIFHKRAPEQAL
Procedure: as §1, §2, §3
Experimental conditions for tests are given in Table 10, and results of tests for representative compounds are given in Table 11.

[10] = system: Swiss albino mice; assay: Four-plate test in Swiss albino mice; format: in vivo
Procedure: Within 24 h prior to testing, animals were habituated to experimental conditions. For this purpose mice in home cages were transferred to the experimental room for 15 min., while maintaining the lighting and the “white noise” characteristic for the experiment.
The four-plate test (BIOSEB, France) was performed in a cage (25×18×16 cm) floored by four identical rectangular metal plates (8×11 cm) separated from one another by a gap of 4 mm. The top of the cage was covered by a transparent Perspex lid that prevented escape behaviour. The plates were connected to a device that generated electric shocks. Animals were placed individually in the experimental cage and following a 15-s habituation period, the animal's motivation to explore a novel environment was suppressed by an electric foot shock (0.8 mA, 0.5 s) every time it moved from one plate is to another during a 1-minute test session. This action is referred to as a ‘punished crossing’, and was followed by a 3 s shock interval, during which the animal could move across plates without receiving a shock. The measure of anxiolytic activity of the compound was the number of ‘punished crossings’ from one plate to the adjacent during 1-min test period.

T1 sequence (P28223 whole entry): as the sequence (P28223 whole entry) above

Structure (SMILES) | 5-HT2A-ag [%] [1] [%] | hERG [%] (% block of hERG current) [2] | σ [%] affinity test result [3] [%] | α1 [%] affinity test result [4] [%] | Ki [5] [nM] | Ki [6] [nM] | Ki [7] [nM] | Ki [8] [nM] | Ki [2] [nM] | M3 [%] affinity test result [9] [%] | Ki [4] [nM] | MED (minimum effective dose), four-plate test ([10]; Swiss albino mice) [mg/kg] | activity in words, four-plate test ([10]; mice)
O=C1CCc2ccc(OCCCN3CCN(c4cccc5c4ccn5Cc4ccccc4)CC3)cc2N1 [Compound 4, 7-[3-[4-(1-Benzylindol-4-yl)piperazin-1-yl]propoxy]-3,4-dihydro-1H-quinolin-2-one] | 2 | 27 | 45 | 68 |  |  |  |  |  |  |  |  | 
O=C1CCc2ccc(OCCCCN3CCN(c4cccc5c4ccn5Cc4ccccc4)CC3)cc2N1 [Compound 5, 7-(4-(4-(1-Benzyl-1H-indol-4-yl)piperazin-1-yl)butoxy)-3,4-dihydroquinolin-2(1H)-one] | 8 | 30 | 52 | 88 |  |  |  |  |  |  |  |  | 
O=C1CCc2ccc(OCCCN3CCN(c4cccc5c4ccn5S(=O)(=O)c4ccccc4)CC3)cc2N1 [Compound 23, 7-[3-[4-[1-(Benzensulphonyl)indol-4-yl]piperazin-1-yl]propoxy]-3,4-dihydro-1H-quinolin-2-one] |  | 7 | 13 | 55 | 3.4 | 32 | 170 | 2.1 | > 10000 | 16 | 290 |  | 
O=C1CCc2ccc(OCCCCN3CCN(c4cccc5c4ccn5S(=O)(=O)c4ccccc4)CC3)cc2N1 [Compound 24, 7-(4-(4-(1-(Phenylsulphonyl)-1H-indol-4-yl)piperazin-1-yl)butoxy)-3,4-dihydroquinolin-2(1H)-one] |  | 9 | 57 | 92 | 0.81 | 1.3 | 3.2 | 0.35 | > 10000 | 37 | 22 | 5 | active
O=C1CCc2ccc(OCCCCN3CCN(c4cccc5c4ccn5Cc4cccc(F)c4)CC3)cc2N1 [Compound 63, 7-[4-[4-[1-[(3-Fluorophenyl)methyl]indol-4-yl]piperazin-1-yl]butoxy]-3,4-dihydro-1H-quinolin-2-one] | 6 |  |  | 86 |  |  |  |  |  |  |  |  | 
O=C1CCc2ccc(OCCCCN3CCN(c4cccc5c4ccn5Cc4cccc(Cl)c4)CC3)cc2N1 [Compound 67, 7-[4-[4-[1-[(3-Chlorophenyl)methyl]indol-4-yl]piperazin-1-yl]butoxy]-3,4-dihydro-1H-quinolin-2-one] | 4 |  |  |  |  |  |  |  |  |  |  |  | 
NC(=O)c1ccccc1OCCCN1CCN(c2cccc3c2ccn3S(=O)(=O)c2ccccc2)CC1 [Compound 72, 2-[3-[4-[1-(Benzenesulfonyl)indol-4-yl]piperazin-1-yl]propoxy]-benzamide] | 2 |  |  |  |  | 3.2 | 18 | 0.31 |  | 23 |  |  | 

From patent US20140121216A1, “INDOLEAMINE DERIVATIVES FOR THE TREATMENT OF CENTRAL NERVOUS SYSTEM DISEASES” (Adamed Sp. z o.o., priority 2011, published 2014)
